The subject of data set [1] is MDA-MB-231 cells. Nature of the data set: Western blot analysis of EV protein content. Type of data set: cell-based. The note with it: 48 hours treatment. How it is done:
(§1) 1.3. EV isolation and purification. EVs were isolated from cells by differential centrifugation as previously described (Ali SA. et al., 2010). Untreated cells were used as a control. Briefly, the above treated and untreated cell culture supernatants were centrifuged at 400×g for 10 minutes. The supernatants were transferred to a clear tube and centrifuged at 10,000×g for 30 minutes. The supernatants from the second spin were […] ultracentrifuged at 200,000×g for 2 hours to pellet the EVs. Finally, the EV pellets were re-suspended with PBS and stored at 4° C. until used for analysis.
(§2) 1.6. Western blot analysis. EVs were isolated from culture supernatants as described above. Protein concentrations were determined by measuring absorbance at 280 nm (Nanodrop 2000). Protein samples were denatured in SDS-PAGE sample buffer by heating at 95° C. for 15 min. Criterion TGX Precast Gels (4-20% Bio-Rad, Richmond, CA) were used to separate the proteins and blotted as previously described (Huang MB. et al 2004). Blots were incubated with the primary antibodies, anti-CD63 and anti-Alix, followed by goat or rabbit anti-Ig secondary antibodies. Specific bands were detected using ECL chemiluminescent substrate (Santa Cruz Biotechnology, Santa Cruz, CA) and visualized on the ImageQuant LAS 4000 imaging system (GE Healthcare, Piscataway, NJ 08854).
(§3) Western blot analysis was used to examine the effects of the SMRwt peptides, PEG-SMRwt-Clu peptide and SMRwt-CPP peptide, and the mortalin inhibitors MKT-077, Omeprazole, and DMA on EV protein content in MCF-7, MDA-MB-231 and K562 cells. Negative control treatments included the PEG-SMRmut-Clu peptide, […] (SEQ ID NO: 49) and the SMRmut-CPP peptide, […] (SEQ ID NO: 50). EVs were isolated from all treated and untreated cell lines screened. Western blot analyses were carried out to evaluate the expression levels of the exosomal proteins, Alix, mortalin, and vimentin in MCF-7 cells (FIG. 7, Panel A, left sub-panel), MDA-MB-231 cells (FIG. 7, Panel A, middle sub-panel), and K562 cells (FIG. 7, Panel A, right sub-panel).
Background: A western blot detects proteins with antibodies after separation by electrophoresis.

Data set [2] has as its system K562 cells. Nature of the data set: Western blot analysis of EV protein content. As to conditions: 48 hours treatment. Type of data set: cell-based. How it is done:
as §1, §2, §3

Data set [3] relates to MCF-7 cells. Nature of the data set: Western blot analysis of EV protein content. Type of data set: cell-based. The note with it: 48 hours treatment. On the procedure:
as §1, §2, §3

In data set [4] the test system is MDA-MB-231 cells. The experiment in a line: NanoSight nanoparticle tracking analysis (NTA) of released EVs. Type of data set: cell-based. As to conditions: MDA-MB-231 cells treated for 48 hr; control media 4.7×10^9 particles/ml. How it is done:
as §1
(§4) 1.5. EV nanoparticle tracking analysis (NTA). Analysis of absolute size distribution of EVs was performed using NanoSight LM10 with NTA2.3 (NanoSight Ltd., Minton Park, UK). EV particles were automatically tracked and sized based on Brownian motion and the diffusion coefficient. After isolation, the untreated and treated EVs were re-suspended in 0.5 mL of PBS. Control medium and filtered PBS were used as controls in this technique. The NTA measurement conditions were: temperature=21.0+/−0.5° C.; viscosity=0.99+/−0.01 cP; frames per second=25; measurement time=30 s. The detection threshold was similar in all samples. […]

Data set [5] deals with MCF-7 cells. Described as above. Type of data set: cell-based. The note with it: MCF-7 cells treated for 48 hr; untreated control 5.16×10^9 particles/ml. On the procedure:
as §1, §4

For data set [6], the system named is MCF-7, MDA-MB-231 and K562 cells. The experiment in a line: Exosome/EV release, overall statements across cell lines (AchE, NanoSight, Western blot). The class given is cell-based. On the procedure:
Acetylcholinesterase (AchE) assays, NanoSight analysis and Western blot analysis were performed to characterize EVs released from MCF-7 and MDA-MB-231 cells treated for 48 hr with the various peptides.
To further examine the underlying mechanism for blocking exosome release, a study was extended to examine the effects of the SMRwt peptides, PEG-SMRwt-Clu peptide and SMRwt-CPP peptide, and the mortalin inhibitors MKT-077, Omeprazole, and DMA on exosome release. In particular, acetylcholinesterase (AchE) assays, NanoSight analysis and Western blot analysis were performed to characterize EVs released from MCF-7, MDA-MB-231 and K562 cells. Panels A, B and C depict the relative numbers of EVs released as a function of time as measured by an acetylcholinesterase (AchE) assay in MCF-7 cells (FIG. 6, Panel A); MDA-MB-231 cells (FIG. 6, Panel B); and K562 cells (FIG. 6, Panel C).

The test system of data set [7] is MDA-MB-231 cells. The experiment in a line: Complement-mediated cytotoxicity (anti-CXCR4 antibody plus NHS or NIS, trypan blue exclusion). The class given is cell-based. The note with it: 280 nM PEG-SMRwt-Clu or 560 nM SMRwt-CPP. How it is done:
(§5) Therefore, it was of interest to see whether SMR peptide driven mortalin sequestration and functional disruption increases cell sensitivity to complement-induced cell death. Accordingly, MCF-7, MDA-MB-231, and K562 cells were treated with 280 nM PEG-SMRwt-Clu peptide or 560 nM SMRwt-CPP peptide alone for 60 min at 37° C., followed by treatment with 1 μg/mL anti-CXCR4 antibody and 50 μL normal human serum (NHS; as a source of complement) or normal heat-inactivated (human) serum (NIS) for an additional 60 min at 37° C. (FIG. 8). PEG-SMRmut-Clu peptide and SMRmut-CPP peptide were used as negative controls. The percentage of stained (dead) cells was determined by trypan blue exclusion and is representative of 3 independent experiments.
(§6) To further validate the ability of mortalin neutralization to render or enhance complement-mediated cytotoxicity, MCF-7, MDA-MB-231 and K562 cells were transfected with vectors expressing mortalin siRNAs or negative control siRNAs, incubated for 72 hours at 37° C., treated with anti-CXCR4 antibody for 30 minutes at 4° C. followed by incubation with either NHS or NIS for 60 minutes at 37° C.

In data set [8] the test system is K562 cells. Described as above. The class given is cell-based. As to conditions: 280 nM PEG-SMRwt-Clu or 560 nM SMRwt-CPP. How it is done: as §5, §6
Data set [9] relates to MCF-7 cells. The data set is described as above. Type of data set: cell-based. The note with it: 280 nM PEG-SMRwt-Clu or 560 nM SMRwt-CPP. On the procedure:
as §5, §6

For data set [10], the system named is K562, MCF-7 and MDA-MB-231 cultures. The experiment in a line: Complement-mediated cytotoxicity, overall statements across cell lines. Type of data set: cell-based. As to conditions: peptide, then anti-CXCR4 antibody and NHS. On the procedure:
as §5, §6

The subject of data set [11] is MDA-MB-231 cells. The experiment in a line: Acetylcholinesterase (AchE) assay of exosome/EV release. Type of data set: cell-based. On the procedure:
as §1
(§7) 1.4. Exosome characterization by acetylcholinesterase (AchE) assay. Purified EVs were quantitated by measurement of AchE as described (Ellman et al., 1961). Briefly, a 100 mM dithibionitrobenzoic (DTNB) solution was prepared for use as a stock color indicator, and a 28.9 mg/mL acetylthiocholine iodide in PBS solution was prepared as a stock substrate. The stock substrate stock can be stored at −20° C. up to one month, while the color indicator can be stored at 4° C. for two weeks. A working solution was prepared by mixing 10 mL of PBS with 200 μL of Substrate and 500 μl of DTNB. 50 μL of each exosome sample was transferred to 96 well microtitre plates, and a standard curve was prepared using AchE from 0.98 mU/mL to 2000 mU/mL. After 50 μL of standards were added into separate wells, 200 μL of the working solution was added to all wells. After 20 min incubation, AchE activity was measured at 450 nm using a SpectroMax M5 fluorimeter.

The subject of data set [12] is MCF-7 cells. The data set is described as above. The class given is cell-based. How it is done: as §1, §7
The test system of data set [13] is MCF-7, MDA-MB-231 and K562 cells. As to conditions: previously shown (Huang et al., Oncotarget (2017)); cited from earlier work.
Setting [14] is: then anti-CXCR4 antibody and NHS.

Entries after “also recorded” stand apart in the source; their conditions may differ. Read-outs that look alike come from different tables or passages of the source.

Regarding “VGFPVAAVGFPVHPLSKHPYWSQP (SEQ ID NO: 47) [PEG-SMRwt-Clu]”, the “Alix expression in EVs” value in data set [1], in [2] and in [3] (relative to negative controls) was “significantly decreased” throughout. The “Mortalin expression in EVs” value in data set [1], in data set [2] and in data set [3] was “significantly decreased” in each case. Besides, the “Vimentin expression in EVs” value in data set [1] and in [3] (relative to negative controls) was “significantly decreased” throughout. Besides, the “number of particles (NTA)” value in data set [4] is on record as 6.8×10^8 particles/mL; in data set [5], 3.28×10^8 particles/mL. The “exosome/EV release (number of EVs released)” value in [6] (MCF-7, MDA-MB-231 and K562 cells, five days at 37° C., AchE assay) is listed as “reduced the number of EVs released; also recorded: blocked exosome release”. The exosome release entry was “blocks exosome release” in data set [6] (MCF-7 and MDA-MB-231 cells treated for 48 hr); “block exosome release” in [13]. The “cell death under complement-negative conditions” value in data set [7] (60 min) came to 3.6%; in data set [8] (60 min) it was 4.3%; in data set [9] (60 min) it was 2.1%. Also, the “cell death under complement-positive conditions” value in [7] (setting [14]) is listed as 76%; in [8] (setting [14]) it was 55%; in data set [9] (setting [14]) it was 26%. In data set [10], the “complement-mediated cytotoxicity / cell death in the presence of NHS” value is “induce complement-mediated cytotoxicity”. Further, the “AchE activity in EVs” value stood at 66.77 mU/mL in [11] (MDA-MB-231 cells treated for 48 hr, control EVs 118.48 mU/mL) and 41.95 mU/mL in data set [12] (MCF-7 cells treated for 48 hr, control EVs 113.49 mU/mL). Also, the “average AChE concentration levels throughout day 1 to 5” value in data set [11] (MDA-MB-231 cells, five-day treatment at 37° C.) is listed as 42 mU/mL. In addition, the “average AChE concentrations throughout days 1 to day 5” value in [12] (MCF-7 cells, five-day treatment at 37° C.) is 31 mU/mL.
